Data taken from ChEMBL document CHEMBL1914359, “Bendigoles D-F, bioactive sterols from the marine sponge-derived Actinomadura sp. SBMs009” (Bioorg Med Chem, 2011).
Activity calls are given as the source filed them. The calls are words filed in the database; no cut-off is given here.

Columns and labels:
Assay type in all cases: cell-based
[1] = target: T1, Glucocorticoid receptor (Homo sapiens) (UniProt P04150); test: Inhibition of EGFP-tagged GR nuclear translocation in human HaCaT cells at 250 uM after 1 hr using Hoechst staining by fluorescence microscopy relative to control
T1 sequence (whole entry): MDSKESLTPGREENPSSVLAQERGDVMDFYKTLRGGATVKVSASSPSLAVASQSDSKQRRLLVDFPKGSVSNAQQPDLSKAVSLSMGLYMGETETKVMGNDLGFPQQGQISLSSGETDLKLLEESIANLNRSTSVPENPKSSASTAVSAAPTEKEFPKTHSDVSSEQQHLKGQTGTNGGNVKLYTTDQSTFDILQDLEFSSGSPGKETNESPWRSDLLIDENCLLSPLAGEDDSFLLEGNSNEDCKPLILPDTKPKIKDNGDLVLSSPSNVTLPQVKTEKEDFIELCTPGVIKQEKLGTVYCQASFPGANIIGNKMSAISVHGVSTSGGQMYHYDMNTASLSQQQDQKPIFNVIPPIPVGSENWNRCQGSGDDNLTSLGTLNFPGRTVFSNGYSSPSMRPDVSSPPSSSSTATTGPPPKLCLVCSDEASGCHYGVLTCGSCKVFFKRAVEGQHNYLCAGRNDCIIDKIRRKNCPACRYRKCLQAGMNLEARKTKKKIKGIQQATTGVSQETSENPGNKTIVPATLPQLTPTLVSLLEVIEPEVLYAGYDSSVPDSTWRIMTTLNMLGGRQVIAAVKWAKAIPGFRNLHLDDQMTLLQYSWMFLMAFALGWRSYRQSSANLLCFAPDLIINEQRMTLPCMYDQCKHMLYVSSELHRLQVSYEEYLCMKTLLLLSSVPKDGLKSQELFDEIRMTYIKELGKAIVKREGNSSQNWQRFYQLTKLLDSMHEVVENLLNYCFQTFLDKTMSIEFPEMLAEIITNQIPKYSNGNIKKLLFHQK

[2] = target: T1, Glucocorticoid receptor (Homo sapiens); test: Inhibition of EGFP-tagged GR nuclear translocation in human HaCaT cells at 2.5 uM after 1 hr using Hoechst staining by fluorescence microscopy relative to control
[3] = Inhibition of IL1-beta-induced GFP-tagged NFkappaB nuclear translocation in CHO cells pretreated for 4 hrs before IL1-beta challenge using Hoechst staining by fluorescence microscopy relative to control; details: Cricetulus griseus
[4] = target: T1, Glucocorticoid receptor (Homo sapiens); test: Inhibition of EGFP-tagged GR nuclear translocation in human SH-SY5Y cells at 250 uM after 1 hr using Hoechst staining by fluorescence microscopy relative to control
[5] = target: T1, Glucocorticoid receptor (Homo sapiens); test: Inhibition of EGFP-tagged GR nuclear translocation in human U2OS cells at 250 uM after 1 hr using Hoechst staining by fluorescence microscopy relative to control
[6] = target: T1, Glucocorticoid receptor (Homo sapiens); test: Inhibition of EGFP-tagged GR nuclear translocation in human U2OS cells at 2.5 uM after 1 hr using Hoechst staining by fluorescence microscopy relative to control
[7] = target: T1, Glucocorticoid receptor (Homo sapiens); test: Inhibition of EGFP-tagged GR nuclear translocation in human SH-SY5Y cells at 2.5 uM after 1 hr using Hoechst staining by fluorescence microscopy relative to control
L929 = test: Cytotoxicity against mouse L929 cells after 5 days by MTT assay; details: for Activity: mouse, l929, 120 h

In the case of `C[C@H](CCC(=O)O)[C@H]1CC[C@H]2[C@@H]3[C@H](O)CC4=CC(=O)C=C[C@]4(C)[C@H]3C[C@H](O)[C@]12C` (relative stereo), the inhibition [1] is reported as “Active”, the inhibition [2] is reported as “Active” and the IC50 [3] is reported as 71 µM. The inhibition [4] was “Active”, the inhibition [5] was “Active” and the inhibition [6] was “Active”. The inhibition [7] was “Active” and the Activity (L929) was “Non-toxic”.

In the case of `C[C@H](C(=O)O)[C@H]1CC[C@H]2[C@@H]3[C@H](O)CC4=CC(=O)C=C[C@]4(C)[C@H]3C[C@H](O)[C@]12C` (relative stereo), the inhibition [1] is reported as “Active”, the inhibition [2] is reported as “Active” and the inhibition [4] is reported as “Active”. The inhibition [5] was “Active”, the inhibition [6] was “Active” and the inhibition [7] was “Active”. For the same molecule, the IC50 (L929; Mus musculus, L929, 120 h) was 30 µM.

For `CC(=O)[C@@H](C)[C@H]1CC[C@H]2[C@@H]3[C@H](O)CC4=CC(=O)C=C[C@]4(C)[C@H]3C[C@H](O)[C@]12C` (relative stereo), the inhibition [1] was “Active”, the inhibition [2] was “Active” and the inhibition [4] was “Active”. For the same molecule, the inhibition [5] was “Active”, the inhibition [6] was “Active” and the inhibition [7] was “Active”. The Activity (L929) was “Non-toxic”.
